Inconclusive results are not listed.
Biological target: Virion infectivity factor (Human immunodeficiency virus type 1 group M subtype B (isolate BH10)) + Virion infectivity factor (Human immunodeficiency virus type 1 group M subtype B (isolate BRU/LAI)) + Virion infectivity factor (Human immunodeficiency virus type 1 group M subtype B (isolate PCV12)) + Virion infectivity factor (Human immunodeficiency virus type 1 group M subtype B (isolate HXB2)) + DNA dC->dU-editing enzyme APOBEC-3G (Homo sapiens) (UniProt P69720+P69721+P69722+P69723+Q9HC16)
Test: HIV-1 Vif–A3G interaction blockers – biochemical, TR-FRET, GST-Vif 1-94, biotin-A3G peptide, dose response retest, primary screen (AID 1117319);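 note: Vif residues 1-94 fused to GST binding biotinylated APOBEC3G peptide 110-148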
Conditions: TR-FRET GST-Vif / biotin-A3G peptide binding

Row | Structure (SMILES) | IC50 [µM]
1 | O=C(O)CCc1ccc(-c2cccs2)n1-c1ccc(C(=O)O)cc1 | 80.6
2 | O=C1/C(=C/c2ccco2)SC(=S)N1C1CCS(=O)(=O)C1 (centres undefined) | 3.88
3 | Cc1c(N=C2C=C(Br)C(=O)C(Br)=C2)c(=O)n(-c2ccccc2)n1C | 14.1
4 | CC(C)CC(=O)Nc1nnc(-c2ccco2)s1 | 68.1
5 | Cc1ccc(C)n1Cc1ccc(C(=O)O)cc1 | 1.55
6 | COc1ccc(N2C3=C(CC4=C2CCCC4=O)C(=O)CCC3)cc1 | 26.3
7 | Cc1cc(C(=O)CSc2nnnn2C)c(C)n1CCc1ccc(Cl)cc1 | 29.4
8 | Cc1ccc(/C=c2\sc3nc(-c4cccs4)nn3c2=O)o1 | 13.2
9 | Cc1cc(-c2ccco2)n(-c2ccccc2)n1 | 50.4
10 | O=C(NCCO)Nc1ccc2nc(-c3ccco3)c(-c3ccco3)nc2c1 | 0.24
11 | CCN(CC)S(=O)(=O)c1cccc(C(=O)N/N=C/c2ccc(O)c(O)c2O)c1 | 3.48
12 | COc1ccc(O)c(C(=O)C2c3ccccc3C(=O)N2c2ccc(C)cc2)c1 (centres undefined) | 20.4
13 | COc1ccc(N2CCN(C(=O)COc3ccccc3)CC2)cc1 | 76.9
14 | CC1=C(O)C(=O)C=C2C1=CC=C1C2(C)CCC2(C)C3CC(C)(C(=O)O)CCC3(C)CCC12C (centres undefined) | 12.2
15 | O=C(Nc1ccc2nc(-c3ccco3)c(-c3ccco3)nc2c1)N1CCCCCC1 | 0.58
16 | CN(C)c1ccc(N/C=C/C(=O)c2ccco2)cc1 | 30.8
17 | S=c1[nH]nc(-c2cccnc2)n1/N=C/C=C/c1ccco1 | 3.97
18 | Cc1ccc(-c2nc3s/c(=C\c4ccco4)c(=O)n3n2)cc1 | 27.6
19 | CN(CCC#N)C(=O)COC(=O)c1c2c(nc3ccccc13)/C(=C\c1ccco1)CC2 | 1.66
20 | O=C(O)Cn1cc(/C=C2\C(=O)NC(=O)N(Cc3ccco3)C2=O)c2ccccc21 | 14.7
21 | N#CC1=C(N)C2=C(N3CCCCC3)CCCC2C1(C#N)C#N (centres undefined) | 1.7
22 | Oc1ccc(N=Cc2ccc(O)c(O)c2)cc1 | 0.99
23 | O=S(=O)(O)c1cc(O)c2c(O)c(N=Nc3cc(Cl)ccc3O)c(S(=O)(=O)O)cc2c1 | 78.5
24 | CCn1c2ccccc2c2cc(NC(=O)c3ccccc3[N+](=O)[O-])ccc21 | 14.7
25 | CC(=O)NN1C(=O)/C(=C\c2ccc(Br)o2)SC1=S | 5.73
26 | CC1CCC/C(=C\Nc2ccc(O)cc2)C1=O (centres undefined) | 17.2

Row | Structure (SMILES) | IC50 [µM]
27 | CC(/C=N/n1c(-c2ccncc2)n[nH]c1=S)=C\c1ccco1 | 5.1
28 | CCc1cccc(NC(=O)CCS(=O)(=O)c2ccc(Br)cc2)c1 | 14.7
29 | Oc1ccc(NCc2cccc(OCc3ccc(F)cc3)c2)cc1 | 2.37
30 | CCN(CC)Cc1cc(Nc2c3ccccc3nc3c4ccccc4n(C)c23)cc(CN(CC)CC)c1O | 10.9
31 | O=C(O)CC(C(=O)O)N1C(=O)/C(=C/C=C/c2ccco2)SC1=S (centres undefined) | 0.96
32 | CCN(CC)c1ccc(C2NC(=O)NC(C)=C2C(=O)Nc2ccccc2)cc1 (centres undefined) | 84.4
33 | CCOCCNC(=O)c1ccccc1C(=O)NCCOCC | 89.2
34 | O=C1CCCC2=C1C(c1ccco1)Nc1ccc3ccccc3c12 (centres undefined) | 4.21
35 | CN(CCO)c1cc(Sc2nc3ccccc3s2)c2nonc2c1[N+](=O)[O-] | 42.6
36 | C=C(C)C(=O)Nc1cccc(C2=NOC3(C2)C[C@@H](C(N)=O)N(C(=O)/C=C/CC)C3)c1 (some centres undefined) | 3.32
37 | COc1cc(C2Nc3cccc4cccc(c34)N2)cc(OC)c1O | < 4.18
38 | CO[C@H]1C=CO[C@@]2(C)Oc3c(C)c(O)c4c(O)c(c(C=NN5CCN(C)CC5)c(O)c4c3C2=O)NC(=O)C(C)=CC=C[C@H](C)[C@H](O)[C@@H](C)[C@@H](O)[C@@H](C)[C@H](OC(C)=O)[C@@H]1C | 7.75
39 | O=C(O)c1ccc(S(=O)(=O)c2ccc([N+](=O)[O-])cc2[N+](=O)[O-])cc1 | 53.3
40 | O=[N+]([O-])c1cc(CN2CCOCC2)c2cccnc2c1O | 4.07
41 | O=C(OCC1O[C@@H](OC(=O)c2cc(O)c(O)c(O)c2)[C@@H](OC(=O)c2cc(O)c(O)c(O)c2)[C@@H](OC(=O)c2cc(O)c(O)c(O)c2)[C@@H]1OC(=O)c1cc(O)c(O)c(O)c1)c1cc(O)c(O)c(O)c1 (some centres undefined) | < 0.195
42 | COC(=O)C1=C(C)NC(=O)/C1=C\c1cc(C)n(-c2ccccc2C)c1C | 14.2
43 | COc1cc(/C=C/C=C2/CC/C(=C/C=C/c3ccc(O)c(OC)c3)C2=O)ccc1O | 4.03
44 | COCCNC(=O)COC(=O)c1[nH]c(C)c(C(C)=O)c1C | 9.88
45 | Cc1nn(Cc2ccccc2)c(C)c1C(=O)OCC(=O)c1cc(C)n(C2CC2)c1C | 80.5
46 | Cc1cc(C)cc(Nc2ccc(C(=O)O)cc2N)c1 | 26.1
47 | C=CC1=C(C(=O)O)N2C(=O)C(NC(=O)Cc3ccccc3)C2SC1 (centres undefined) | 11.5
48 | C=CCn1c(SCC(=O)c2cc(C)n(C(C)COC)c2C)nc2sc(C)c(C)c2c1=O (centres undefined) | 27.1
49 | O=C1C(=Cc2ccco2)CCCC1=Cc1ccco1 | 12.1
50 | O=C(O)c1cccc2c1NC(C(=O)O)C1CC(Sc3ccccc3[N+](=O)[O-])C(Cl)C21 (centres undefined) | 0.5
51 | O=C(O)c1cc(N2N=C(C(F)(F)F)/C(=C/C=C/c3ccco3)C2=O)ccc1Cl | 1.04
52 | O=C1C=Cc2ccccc2C1=O | 10.6

Row | Structure (SMILES) | IC50 [µM]
53 | COC(=O)C1=C(O)/C(=C\c2ccc(CNC(=O)C(=O)Nc3ccc(C)cc3)o2)N=C1C | 24.1
54 | O=C1CCC/C1=C/Nc1ccc2c(c1)OCO2 | 2.09
55 | O=C1CCCC(O)=C1C=Nc1ccc(O)cc1 | 35.4
56 | CN(C)c1ccc(NC(=O)CSc2nc3ccccc3c(=O)n2C2CCCCC2)cc1 | 21.7
57 | CCOc1ccc(CCNC(=O)C2CC(C)=CCC2C(=O)O)cc1OCC (centres undefined) | 56.6
58 | Cc1cccc(OCCn2cccc2/C=C2/C(=O)NC(=O)N(Cc3ccco3)C2=O)c1 | 4.18
59 | CCOc1ccc(CNc2ccc(N3CCCC3)cc2)cc1 | 6.59
60 | CCOC(=O)N1CCN(C(=O)c2ccc3c(SCC(=O)O)c4c(nc3c2)CCC4)CC1 | 1.9
61 | CN(C)c1ccc(N2C(=O)CC(Nc3ccc(N4CCOCC4)cc3)C2=O)cc1 (centres undefined) | 1.23
62 | CSc1oc(-c2ccco2)nc1S(=O)(=O)c1ccccc1 | 31.5
63 | Cc1nc2cc(NC(=O)Nc3ccc(N4CCOCC4)cc3)ccc2n1C | 99.2
64 | NC(=S)N=Nc1c(O)cc(O)c2[nH]c(=O)ccc12 | 8.04
65 | O=C(NNC(=O)c1ccccc1F)c1cccc(-n2cccc2)c1 | 8.55
66 | CN(CC(=O)Nc1ccc(F)cc1)C(=O)c1cc(-c2ccco2)nc2ccccc12 | 5.48
67 | CC(C)C(C(=O)O)N1C(=O)/C(=C/C=C/c2ccco2)SC1=S (centres undefined) | 0.36
68 | NC(CO)C(=O)NNCc1ccc(O)c(O)c1O (centres undefined) | 1.49
69 | Nc1ccc(N2CCN(Cc3ccccc3Cl)CC2)c(Cl)c1 | 85.1
70 | CCC(=O)OCCNc1cc(Sc2nc3ccccc3[nH]2)c2nonc2c1[N+](=O)[O-] | 9.48
71 | COc1ccc(S(=O)(=O)N(C(C)=O)c2ccc3oc(=O)sc3c2)cc1 | 88.4
72 | O=C1C(Cl)=C(Oc2ccccc2)C(=O)c2ccccc21 | 23.6
73 | CCOC(=O)C1=C(C)N=c2s/c(=C/c3ccco3)c(=O)n2C1c1cccc(OC)c1 (centres undefined) | 33
74 | O=[N+]([O-])c1ccc(/C=N/Nc2nc(N3CCCC3)nc(N3CCCC3)n2)o1 | 54.2
75 | Cc1noc(/C=C/c2ccco2)c1S(=O)(=O)N1CCC(C(=O)N2c3ccccc3CC2C)CC1 (centres undefined) | 11.9
76 | COc1ccc2c(c1)CC1(CN2C)C(=O)NC(=O)N(c2ccc(C)cc2)C1=O (centres undefined) | 58.9
77 | Cc1ccc(C(=O)C2=C(O)C(=O)N(c3ncccn3)C2c2ccc(F)cc2)o1 (centres undefined) | 21.8
78 | CC(=O)Nc1ccc(S(=O)(=O)Nc2nc3ccccc3nc2Nc2ccc(N)cc2)cc1 | 0.62

Row | Structure (SMILES) | IC50 [µM]
79 | CNc1ccc(Br)cc(C(=O)/C=C/c2ccc(OC)cc2OC)c1=O | 2.79
80 | Cc1cccc(N(C(=O)Cn2nnc3ccccc32)C(C(=O)NCc2ccco2)c2ccncc2)c1C (centres undefined) | 4.66
81 | O=c1nc2s/c(=C\c3ccco3)c(=O)n2nc1Cc1ccccc1 | 4.18
82 | CS(=O)(=O)c1ccc(C(=O)Nc2nc(-c3ccco3)c(-c3ccco3)s2)cc1 | 22.1
83 | COc1ccc2[nH]c3c4c(ccc3c2c1)C(=O)C=CC4=O | 1.42
84 | COc1ccc2c3c(cccc13)N(C)N=C2C | 4.23
85 | Oc1ccccc1/C=N/c1c(-c2ccco2)nc2ccccn12 | 0.48
86 | COC(=O)C1=C(O)/C(=C\c2ccc(CNC(=O)C(=O)Nc3ccc(C)c(C)c3)o2)N=C1C | 34.1
87 | CC[C@H](C)/C=C(C)/C=C/C1=CC2=CC(=O)[C@]3(C)OC(=O)[C@@H](C(C)=O)[C@@H]3C2=CO1 | 13
88 | O=C(O)CC(C(=O)O)N1C(=O)/C(=C/c2ccc(-c3nc4ccccc4s3)o2)SC1=S (centres undefined) | 6.36
89 | O=C(NCCCO)c1ccc2nc(-c3ccco3)c(-c3ccco3)nc2c1 | 0.72
90 | NC(=O)c1c(NC(=O)Cc2cccs2)sc2c1CCC2 | 49.5
91 | Cc1cccc(-n2nc3c(c2NC(=O)c2ccc(Br)o2)CSC3)c1 | 63.6
92 | C=CCn1c(COc2ccc(F)cc2)nnc1SCC(=O)NC(=O)NCc1ccco1 | 40.7
93 | Cc1[nH]c2ccccc2c1Cc1nnc(SCc2ccccc2)o1 | 70.8
94 | CNc1ccc(Br)cc(C(=O)/C=C/c2cccc(OC)c2OC)c1=O | 4.1
95 | Cc1cc(/C=N/Nc2ccc([N+](=O)[O-])cn2)c(C)n1-c1ccc(C(=O)O)cc1 | 3.25
96 | Cc1cccc(C)c1NC(=O)COC(=O)c1cc(-c2cccnc2)nc2ccccc12 | 41.4
97 | O=C(O)C1Nc2c(Cl)cc(Cl)c(Cl)c2C2C=CCC12 (centres undefined) | 30
98 | COc1cc(CC(=O)OCC(=O)Nc2cccc([N+](=O)[O-])c2)cc(OC)c1OC | 11.8
99 | O=C1CC(Nc2ccc(N3CCOCC3)cc2)C(=O)N1Cc1ccccc1 (centres undefined) | 2.29
100 | CN1C(=O)/C(=C/c2cccn2-c2ccc3ccccc3c2)C(=O)NC1=S | < 8.17
101 | C=C(C)C(=O)Nc1cccc(C2=NOC3(C2)C[C@@H](C(N)=O)N(C(=O)c2cc([N+](=O)[O-])cc([N+](=O)[O-])c2)C3)c1 (some centres undefined) | 4.69
102 | Cc1ccnc(NS(=O)(=O)c2ccc(NC(=O)Cc3cccs3)cc2)n1 | 8.35
103 | Nc1cccc2c(O)cc(S(=O)(=O)O)cc12 | 2
104 | O=C(/C=C/c1ccc(O)c(O)c1)c1ccc(S(=O)(=O)N2CCCCCC2)cc1 | 2.29

Reference: PubChem BioAssay AID1117319 (Southern Research Institute, 2015)
